41 compounds from ChEMBL document CHEMBL1134193, “Initial structure-activity relationship of a novel class of nonpeptidyl GnRH receptor antagonists: 2-arylindoles” (Bioorg Med Chem Lett, 2001) can be followed below.

SMILES strings stand for the structures.

One experiment addresses T1, Gonadotropin-releasing hormone receptor (Rattus norvegicus) (UniProt P30969).
T1 sequence (whole entry): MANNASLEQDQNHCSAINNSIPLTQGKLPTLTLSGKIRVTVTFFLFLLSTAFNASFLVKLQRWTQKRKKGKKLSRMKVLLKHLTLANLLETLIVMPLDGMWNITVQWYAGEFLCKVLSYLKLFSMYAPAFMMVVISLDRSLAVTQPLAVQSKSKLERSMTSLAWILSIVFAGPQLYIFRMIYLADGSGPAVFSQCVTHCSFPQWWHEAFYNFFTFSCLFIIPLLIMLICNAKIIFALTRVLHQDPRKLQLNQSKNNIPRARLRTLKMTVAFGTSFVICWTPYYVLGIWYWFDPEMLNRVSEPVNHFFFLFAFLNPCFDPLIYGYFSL
As to the kind of experiment: Percent inhibition of displacement of [125I]- - radio-labeled buserelin from rat Gonadotropin-releasing hormone receptor. Particulars: concentration not given here.
As to `COc1ccc(-c2[nH]c3ccccc3c2CCNC(=O)CCCc2ccc(OCc3ccccc3)cc2)cc1OC`, the inhibition amounted to 0%.

The target of the next experiment is T2, Gonadotropin-releasing hormone receptor (Rattus norvegicus, UniProt P30969).
T2 sequence (P30969 whole entry): T1 sequence (whole entry)
Kind of experiment: Ability to displace [125I]- - radio-labeled buserelin from rat Gonadotropin-releasing hormone receptor.
Conditions: not given
Compound `Oc1ccc(CCCCNCCc2c(-c3cc4ccccc4s3)[nH]c3ccccc23)cc1` yielded an IC50 of 2500 nM.
The compound `Oc1ccc(CCCCNCCc2c(-c3cccc4ccccc34)[nH]c3ccccc23)cc1` had an IC50 of 130 nM. Compared with the last compound, the IC50 is about 19-fold lower.
Still for that read-out and setting: as for `Oc1ccc(CCCCNCCc2c(-c3ccccc3)[nH]c3ccccc23)cc1`, the figure is 1300 nM; as for `Cc1cc(C)cc(-c2[nH]c3ccccc3c2CCNCCCCc2ccc(O)cc2)c1`, 50 nM; as for `COc1ccc(-c2[nH]c3ccccc3c2CCNCCc2ccc(O)cc2)cc1OC`, 4000 nM.
`Cc1cc(C)cc(-c2[nH]c3ccccc3c2CCNCCc2ccc(O)cc2)c1`: the half-inhibitory concentration (IC50) was 200 nM.
As for `COc1cccc(-c2[nH]c3ccccc3c2CCNCCCCc2ccc(O)cc2)c1`, the 50% inhibitory concentration (IC50) worked out at 600 nM.
Still for that read-out and setting: next, `COc1ccc(-c2[nH]c3ccccc3c2CCNCCCCCc2ccc(O)cc2)cc1OC`: 2000 nM; `COc1ccc(-c2[nH]c3ccccc3c2CCNC(=O)CCCc2ccc(N)cc2)cc1OC`: 30000 nM.
On the same count and under the same terms, next, `Cc1cc(C)cc(-c2[nH]c3ccccc3c2CCNCCCCCc2ccc(O)cc2)c1`: 200 nM; `Cc1cc(C)cc(-c2[nH]c3ccccc3c2CCNCCCc2ccc(O)cc2)c1`: 250 nM.
Same read-out and setting: next, `COc1ccc(-c2[nH]c3ccccc3c2CCNCCCCCCc2ccc(O)cc2)cc1OC`: 10000 nM; `COc1ccc(-c2[nH]c3ccccc3c2CCNCCCc2ccc(O)cc2)cc1OC`: 6000 nM; `Oc1ccc(CCCCNCCc2c(-c3ccc4ccccc4c3)[nH]c3ccccc23)cc1`: 2500 nM.
As for `COc1ccc(-c2[nH]c3ccccc3c2CCNCCCCc2ccc([N+](=O)[O-])cc2)cc1OC`, the IC50 was found to be 5000 nM.
Still for that read-out and setting: as for `Cc1ccccc1-c1[nH]c2ccccc2c1CCNCCCCc1ccc(O)cc1`, the figure is 500 nM.
On the same count and under the same terms, next, `Cc1cc(C)cc(-c2[nH]c3ccccc3c2CCNCCCCCCc2ccc(O)cc2)c1`: 600 nM.
On the same count and under the same terms, next, `Cc1cc(C)cc(-c2[nH]c3ccccc3c2CCNCc2ccc(O)cc2)c1`: 9000 nM.
Compound `Oc1ccc(CCCCNCCc2c(-c3ccc(F)cc3)[nH]c3ccccc23)cc1` had an IC50 of 11000 nM.
The compound `COc1ccc(-c2[nH]c3ccccc3c2CCNC[C@H](O)COc2ccc(O)cc2)cc1OC` showed an IC50 of 3000 nM. This IC50 is about 3.7-fold lower than that of the compound before.
Same read-out and setting: next, `Cc1cccc(-c2[nH]c3ccccc3c2CCNCCCCc2ccc(O)cc2)c1C`: 900 nM; `COc1ccc(-c2[nH]c3ccccc3c2CCNC[C@H](O)CCc2ccc(O)cc2)cc1OC`: 2000 nM.
On the same count and under the same terms, next, `COc1ccc(-c2[nH]c3ccccc3c2CCNC(=O)CCCc2ccc([N+](=O)[O-])cc2)cc1OC`: greater than 30000 nM; `Cc1ccc(C)c(-c2[nH]c3ccccc3c2CCNCCCCc2ccc(O)cc2)c1`: 400 nM.
Same read-out and setting: next, `COc1ccc(-c2[nH]c3ccccc3c2CCNC[C@@H](O)COc2ccc(O)cc2)cc1OC`: 3000 nM.
`Cc1cccc(C)c1-c1[nH]c2ccccc2c1CCNCCCCc1ccc(O)cc1` displayed an IC50 of 1700 nM.
The compound `Cn1ccc2cc(-c3[nH]c4ccccc4c3CCNCCCCc3ccc(O)cc3)ccc21` displayed an IC50 of 2800 nM.
On the same count and under the same terms, next, `COc1ccc(-c2[nH]c3ccccc3c2CCNC(=O)CCCc2ccc(O)cc2)cc1OC`: greater than 30000 nM.
For the compound `Cc1cccc(-c2[nH]c3ccccc3c2CCNCCCCc2ccc(O)cc2)c1`, the IC50 was found to be 200 nM. In other words, the sub-micromolar range.
Same read-out and setting: as for `COc1ccc(-c2[nH]c3ccccc3c2CCNCCCCc2ccc(O)cc2)cc1OC`, the figure is 2000 nM; as for `Cc1ccc(-c2[nH]c3ccccc3c2CCNCCCCc2ccc(O)cc2)cc1`, 9000 nM.
Same read-out and setting: as for `COc1cc(OC)cc(-c2[nH]c3ccccc3c2CCNCCCCc2ccc(O)cc2)c1`, the figure is 700 nM; as for `COc1ccc(-c2[nH]c3ccccc3c2CCNCCCCc2ccc(N)cc2)cc1OC`, 10000 nM.
For the compound `COc1ccc(-c2[nH]c3ccccc3c2CCNCc2ccc(O)cc2)cc1OC`, the IC50 turned out to be 20000 nM.
The same measure, in the same setting: next, `Oc1ccc(CCCCNCCc2c(-c3csc4ccccc34)[nH]c3ccccc23)cc1`: 300 nM; `Oc1ccc(CCCCNCCc2c(-c3cc(Cl)cc(Cl)c3)[nH]c3ccccc23)cc1`: 170 nM; `CCc1cccc(-c2[nH]c3ccccc3c2CCNCCCCc2ccc(O)cc2)c1`: 900 nM.
The compound `Oc1ccc(CCCCNCCc2c(-c3cc(C(F)(F)F)cc(C(F)(F)F)c3)[nH]c3ccccc23)cc1` registered an IC50 of 1500 nM.
In turn, `Oc1ccc(CCCCNCCc2c(-c3cccc4cnccc34)[nH]c3ccccc23)cc1` came in with a concentration for half-maximal inhibition (IC50) of 1900 nM.
On the same count and under the same terms, as for `COc1ccc(-c2[nH]c3ccccc3c2CCNCCCCc2ccc(OCc3ccccc3)cc2)cc1OC`, the figure is 30000 nM.

What is called inhibition is the share of the control response that was lost under treatment. Higher therefore signals a response far below the control. The IC50 is the concentration at which inhibition is half-maximal. Higher therefore signals weaker potency.
